According to patent US5358936A, “Anionic furanose derivatives, methods of making and using the same” (Gordon; Paul, priority 1991, dated 1994):
“Also recorded” adds a separate entry of the source. Where a name gives a salt, the structure may show the parent alone.

What was measured:
[1] = test system: platelet aggregation; experiment: Mouse tail bleeding time (Example 31 B); format: in vivo
Experimental: A study of mouse tail bleeding time, which is an in vivo model of platelet aggregation and thrombosis was also conducted. In this widely employed model, bleeding was induced by a standardized transection of the tail tip and subsequent bleeding time was determined after vertical immersion of the tails in isotonic saline at 37° C. for thirty seconds.
Two compounds of the invention, Compound III and Compound VIII, were assessed as compared with aspirin, in another study of mouse tail bleeding time. In this study, the mice were housed in a standard animal room rather than in a noisy small animal isolator. Also, all three drugs were administered by an intraperitoneal route, rather than a subcutaneous route for Compound III and an intraperitoneal route for aspirin.

[2] = test system: gastric submucosal thrombi; experiment: Inhibition of gastric submucosal thrombi (Example 30); format: in vivo, rat; conditions: 10 mg/kg IV
Experimental: Thrombosis was induced in rat stomach submucosal blood vessels by the following two-step treatment. First, 1.5 ml of 100 percent ethanol was administered by oral gavage. This produces non-specific injury to tissues and blood vessels of the gastric mucosa. Second, 1.0 mg of adenosine diphosphate (ADP) in 1.0 ml of H2 O, was administered by oral garage 15 minutes after the administration of ethanol. Administration of ADP biases the organ response towards thrombosis by inducing platelet aggregation.
The pathology generated is typically a disseminated pattern of multiple small thrombi, observed on examination of the gastric mucosa, 1-3 hours after ethanol administration. These thrombi are dark red, dilated, thrombosed submucosal blood vessel segments, each being approximately 1 mm thick and 2 to 6 mm long.
In these studies, animals were treated with drug or centrol at one hour prior to ethanol administration. Thrombosis was induced as discussed before, and animals were sacrificed at 1.5 hours after ethanol administration. Focal thrombi were then counted. In this study, n=9-10.

[3] = test system: rat paw; experiment: Post-ischemic reperfusion paw swelling (Example 22); format: in vivo, Sprague Dawley male rats; conditions: for % Change as a result of treatment / Paw swelling, Mean ± SE: another study; for Paw swelling, Mean ± SE: i.p. 45 minutes prior
Source text: This important disease model is used to evaluate aspects of tissue injury that occur in heart attack, or myocardial infarction, and stroke. Under these conditions, a significant period of injury can occur after blood flow has been restored, during the period of reperfusion.
To produce ischemia, blood flow to the left hind foot was largely interrupted by application of a tourniquet made up of two size 18 rubber bands wound eight times around the leg just behind the heel. […] Both application and removal of tourniquet were carried out under ether anesthesia. Injury was equated with organ swelling, which was assayed by measurement of the dorsoventral foot diameter with a Schnelltaster caliper, just before application of the tourniquet and at various times following tourniquet removal, during the reperfusion period.
Rats employed were Sprague Dawley males, weighing 240-280 grams. Drug comparisons were made here employing measurements 30 minutes into the reperfusion period. The widely studied drug allopurinol, a xanthine oxidase inhibitor and a free radical scavenging agent, used in the treatment of gout, and widely used to suppress experimental post-ischemic reperfusion injury was used as an experimental treatment standard. In studies below, allopurinol and all new drugs were given intraperitoneally 45-60 minutes prior to application of the tourniquet. Data are reported as the mean swelling (Mn)±standard error (SE). […] Group n is 5 or 6.
In another study, drug comparisons were made at various times after the reperfusion period. In this study, control and drug treatment groups were as above.

[4] = test system: inflammation in experimental allergic encephalomyelitis; conditions: Willenborg et al. (1989); cited from earlier work
[5] = test system: foot pad; experiment: Inflammation provoked by carrageenan injection (Example 25); format: in vivo, mice; conditions: subcutaneous; ibuprofen 50 mg/kg, Compound III 30 mg/kg; not significant
[6] = test system: peritoneal neutrophils; experiment: In vitro neutrophil chemotaxis toward zymosan-activated rat serum (Example 24); format: cell-based, mouse; conditions: Mus musculus, Neutrophil
Experimental: In vitro neutrophil chemotaxis studies were carried out by standard methods, as follows:
Mice were injected with complete Freund's adjuvant (CFA) and peritoneal cells, principally neutrophjls (>90 percent), were reproved from the mice 24 hours thereafter. Blind-well chemotactic chambers (Nucleopore Corp., Pleasanton, Calif.) were utilized.
Medium (RPMI 1640 plus 10 percent fetal calf serum) or medium plus 20 percent zymosan-activated rat serum (ZAS) was added to the lower compartment of each chamber. A nucleopore filter (8 μm pore size) was placed between compartments and 1×10^5 peritoneal neutrophils (above) suspended in medium were placed in the upper compartment. Chambers were incubated for six hours, after which time the filters were removed and stained with Giemsa stain. The number of cells on the lower surface of the filter was counted under a microscope. Treatment groups were assayed in duplicate.
The studies were carried out more specifically as follows:
Zymosan (Sigma Chemical Co., St. Louis, Mo.) was mixed with rat serum for one hour at 37° C. at 1 milligram (mg)/ml. The resulting chemoattractant composition was filtered, aliquotted and stored frozen at -70° C. prior to use.
The above chemoattractant composition was used as a 20 percent v/v solution in medium.
The chemotaxis chambers were arranged as follows:
The chambers were incubated at 37° C. for six hours, after which the chambers were dismantled, and the filters removed and treated as follows:
a) The filters were immersed in Giemsa stain diluted 1:50 for 30-45 minutes.
b) The stained filters were rinsed gently in distilled water for 3-5 minutes.
c) The stained, rinsed filters were air dried without blotting.
Several compounds described herein and control compounds ("drug", above) were examined at various concentrations, in duplicate. The molar concentration of a drug that inhibited the observed chemotaxis by 50 percent, defined as the ID50 value, was determined as shown below.

Q: Which “% Increase in bleeding time” value ([1]; 100 mg/kg intraperitoneal) does the source give for `CC1(C)O[C@H]2O[C@H]([C@@H](COS(=O)(=O)O)OS(=O)(=O)O)[C@@H](OS(=O)(=O)O)[C@H]2O1` [Compound VIII, 1,2-O-(2-Propylidene)-3,5,6-tri-O-sulfo-α-D-allofuranose, tripotassium salt] here?
A: 278%

Q: And the “Mouse Tail Bleeding Time” value ([1]; 100 mg/kg intraperitoneal, control 37.0 ± 5.25)?
A: 139.88 ± 28.23 s

Q: What about the “potency relative to aspirin in prolonging mouse tail bleeding time / suppressing platelet aggregation” value ([1]; first study: aspirin 75 mg/kg IP, Compound III s.c. or oral, second study: all IP 100 mg/kg, tripotassium salt) of the same compound?
A: more effective than aspirin; also recorded: more potent than aspirin in the suppression of platelet aggregation

Q: And the “Drug Effect on thrombi” value [2]?
A: -38.1%

Q: And the “Mean Thrombi per Stomach, ±SE” value ([2]; ethanol + ADP, control 10.60 ± 1.42)?
A: 6.56 ± 1.60 per Stomach

Q: What about the “paw swelling less than control” value ([3]; 60 minutes of reperfusion time, i.p.) of the same compound?
A: 71%

Q: What about the “% Change as a result of treatment” value ([3]; reperfusion time 20 mins., i.p.) of the same compound?
A: -46%

Q: And the “Paw swelling, Mean ± SE” value ([3]; reperfusion time 20 mins., control 8.20 ± 1.02)?
A: 4.60 ± 0.40 0.1 mm

Q: And the “% Change as a result of treatment” value ([3]; reperfusion time 30 mins., i.p.)?
A: -64%

Q: What about the “Paw swelling, Mean ± SE” value ([3]; reperfusion time 30 mins., control 6.60 ± 0.87) of the same compound?
A: 2.40 ± 0.51 0.1 mm

Q: With `O=P(O)(O)OC[C@H]1OC(O)(COP(=O)(O)O)[C@@H](O)[C@@H]1O` (stereo partly drawn) [fructose-1,6-diphosphate] as the compound, how does the “effect on inflammation in EAE, in words” value [4] read?
A: less effective than mannose-6-phosphate

Q: Which “effect on inflammation in EAE, in words” value [4] does the source give for `O=P(O)(O)OC[C@H]1OC(O)[C@@H](O)[C@@H](O)[C@@H]1O` (stereo partly drawn) [Mannose-6-phosphate] here?
A: useful in treating inflammation

Q: For `O=P(O)(O)OC[C@H]1O[C@H](OP(=O)(O)O)[C@@H](O)[C@@H](O)[C@@H]1O` [Mannose-1,6-diphosphate], which “effect on inflammation in EAE, in words” value [4] is on record?
A: less effective than mannose-6-phosphate

Q: What does the source list for `CC(C)Cc1ccc(C(C)C(=O)O)cc1` (stereo not drawn) [Ibuprofen, reference compound]?
A: reduction in swelling [5]: 24%; IC50 ([6]; 6 h, 20 percent zymosan-activated rat serum, six hours, 37° C., read-out: ID50 (molar concentration that inhibited chemotaxis by 50 percent)): > 50 µM; inhibition at 0.1 µg/mL ([6]; dose 0.1 μg/ml, read-out: Percent Inhibition of chemotaxis): 17.5%; inhibition at 1 µg/mL ([6]; dose 1.0 μg/ml, read-out: Percent Inhibition of chemotaxis): 9.3%; inhibition at 10 µg/mL ([6]; dose 10.0 μg/ml, read-out: Percent Inhibition of chemotaxis): 35.5%
